Laboratory results from PubChem BioAssay (NCI).
Several values for one entry are separate records, joined by “and”; a condition that tells them apart may be missing. Identical values can stand only once.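 Results reflect a 48-hour exposure of cells in 96-well plates to compound at five concentrations. GI50 is the concentration that inhibits growth by half. TGI marks complete inhibition of growth.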

How the values were obtained:
Experiment in all cases: NCI-60 cell line screen, 48 h
[1] = system: SNB-19 CNS
[2] = system: HS 578T breast
[3] = system: SR leukemia
[4] = system: CAKI-1 renal
[5] = system: TK-10 renal
[6] = system: SW-620 colon
[7] = system: MDA-MB-231 breast
[8] = system: OVCAR-8 ovarian
[9] = system: SK-MEL-5 melanoma
[10] = system: RXF 393 renal

SMILES: OCc1ccc(N2CCCC2c2ccccc2)cc1Cl (centres undefined)
- GI50 [1]: 13.5 µM
- TGI [1]: > 84 µM
- GI50 [2]: 7.4 µM
- TGI [2]: 30.8 µM
- GI50 [3]: 3.13 µM
- TGI [3]: 17.2 µM
- GI50 [4]: 2.83 µM
- TGI [4]: 17.4 µM
- GI50 [5]: 0.195 µM
- TGI [5]: 1.27 µM
- GI50 [6]: 2.8 µM
- TGI [6]: 27.7 µM
- GI50 [7]: 5.58 µM
- TGI [7]: 24.9 µM
- GI50 [8]: 8.18 µM
- TGI [8]: 30.3 µM
- GI50 [9]: 3.33 µM
- TGI [9]: 9.36 µM
- GI50 [10]: 3.2 µM
- TGI [10]: 15.2 µM

SMILES: COc1cc2c(cc1C1COc3cc4occc4cc3C1=O)OCO2 (centres undefined)
- TGI [1]: > 100 µM
- TGI [2]: 89.8 µM
- TGI [3]: > 100 µM
- TGI [4]: > 100 µM
- TGI [5]: > 100 µM
- TGI [6]: > 100 µM
- TGI [7]: > 100 µM
- TGI [8]: > 100 µM
- TGI [9]: > 100 µM
- TGI [10]: > 100 µM

SMILES: OCC1OC(n2cnc3c(N/N=C\c4ccccn4)ncnc32)C(O)C1O (centres undefined)
- GI50 [1]: 0.364 µM
- TGI [1]: > 100 µM
- GI50 [2]: 1.78 µM
- TGI [2]: > 51.4 µM
- GI50 [3]: 0.0387 µM
- TGI [3]: > 87.7 µM
- GI50 [4]: 0.202 µM
- TGI [4]: 0.809 µM
- GI50 [5]: 0.159 µM
- TGI [5]: > 100 µM
- GI50 [6]: 0.422 µM
- TGI [6]: > 100 µM
- GI50 [7]: 0.0781 µM
- TGI [7]: > 57.3 µM
- GI50 [8]: 0.164 µM
- TGI [8]: 53.7 µM
- GI50 [9]: 0.398 µM
- TGI [9]: 2.29 µM
- GI50 [10]: 0.275 µM
- TGI [10]: 2.45 µM

SMILES: COC1C=COC2(C)Oc3c(C)c(O)c4c(c3C2=O)/C(=N/C2CCC(O)OC2C)C=C(NC(=O)/C(C)=C\C(=O)C2CC2C(O)C(C)C(O)C(C)C(OC(C)=O)C1C)C4=O (centres undefined)
- TGI [1]: 11.6 µM
- TGI [2]: 8.38 µM
- TGI [3]: 5.06 µM
- TGI [4]: 9.92 µM
- TGI [5]: 7.25 µM
- TGI [6]: 4.91 µM
- TGI [7]: 5.69 µM
- TGI [8]: 3.89 µM
- TGI [9]: 4.97 µM
- TGI [10]: 3.45 µM

SMILES: COc1ccc2cc1Oc1ccc(cc1)C[C@H]1c3c(cc4c(c3Oc3cc5c(cc3OC)CCN(C)[C@@H]5C2)OCO4)CCN1C
- GI50 [1]: 3.53 µM
- TGI [1]: 14.6 µM
- GI50 [2]: 7.76 µM
- TGI [2]: 46.2 µM
- GI50 [3]: 0.908 µM
- TGI [3]: 2.87 µM
- GI50 [4]: 5.13 µM
- TGI [4]: 11.9 µM
- GI50 [5]: 5.87 µM
- TGI [5]: 12.2 µM
- GI50 [6]: 2.11 µM
- TGI [6]: 8.47 µM
- GI50 [7]: 1.1 µM
- TGI [7]: 2.87 µM
- GI50 [8]: 2.36 µM
- TGI [8]: 9.9 µM
- GI50 [9]: 0.763 µM
- TGI [9]: 1.43 µM
- GI50 [10]: 0.628 µM
- TGI [10]: 1.69 µM

SMILES: O=C1OC(=O)C(=C\c2ccc3c(c2)OCO3)/C1=C/c1ccc2c(c1)OCO2
- TGI [1]: > 100 µM
- TGI [2]: > 100 µM
- TGI [3]: > 90.8 µM
- TGI [4]: > 100 µM
- TGI [5]: > 100 µM
- TGI [6]: > 100 µM
- TGI [7]: > 100 µM
- TGI [8]: > 100 µM
- TGI [9]: > 100 µM
- TGI [10]: > 100 µM

SMILES: CC(C)NCCCn1c(Sc2cc3c(cc2I)OCO3)nc2c(N)ncnc21
- GI50 [1]: 0.646 µM
- TGI [1]: > 100 µM
- GI50 [2]: 1.28 µM
- TGI [2]: > 100 µM
- GI50 [3]: 0.0602 µM
- TGI [3]: > 100 µM
- GI50 [4]: 0.527 µM
- TGI [4]: > 21.1 µM
- GI50 [5]: 0.161 µM
- TGI [5]: > 100 µM
- GI50 [6]: 0.0592 µM
- TGI [6]: > 100 µM
- GI50 [7]: 0.481 µM
- TGI [7]: 61 µM
- GI50 [8]: 0.156 µM
- TGI [8]: > 100 µM
- GI50 [9]: 0.462 µM
- TGI [9]: 18 µM
- GI50 [10]: 0.753 µM
- TGI [10]: 48.8 µM

SMILES: N#Cc1c(N2CCOCC2)nc(=S)[nH]c1-c1ccco1
- GI50 [1]: 26 µM
- TGI [1]: > 100 µM
- GI50 [2]: 2.08 µM
- TGI [2]: 17.3 µM
- GI50 [3]: 2.8 µM
- TGI [3]: 51.7 µM
- GI50 [4]: 3.77 µM
- TGI [4]: 62.4 µM
- GI50 [5]: 5.35 µM
- TGI [5]: 39.7 µM
- GI50 [6]: 23.5 µM
- TGI [6]: > 100 µM
- GI50 [7]: 4.63 µM
- TGI [7]: > 100 µM
- GI50 [8]: 18.3 µM
- TGI [8]: > 100 µM
- GI50 [9]: 5.06 µM
- TGI [9]: > 100 µM
- GI50 [10]: 12.9 µM
- TGI [10]: > 100 µM

SMILES: Cc1ccc(/C=N\NC(=O)c2[nH]c3ccc(F)cc3c2-c2ccccc2)cc1
- GI50 [1]: 0.0493 µM
- TGI [1]: > 100 µM
- GI50 [2]: 0.0375 µM
- GI50 [3]: 0.0323 µM
- TGI [3]: > 64.2 µM
- GI50 [4]: 0.0344 µM
- TGI [4]: 12.5 µM
- GI50 [5]: 0.0412 µM
- TGI [5]: > 93.3 µM
- GI50 [6]: 0.0428 µM
- TGI [6]: > 100 µM
- GI50 [7]: 0.0283 µM
- TGI [7]: 0.129 µM
- GI50 [8]: 0.0389 µM
- TGI [8]: > 100 µM
- GI50 [9]: 0.0224 µM
- TGI [9]: 0.0559 µM
- GI50 [10]: 0.0305 µM
- TGI [10]: 1.49 µM

SMILES: O=C(Nc1ccc(OCc2nnc(-c3ccc(Cl)cc3)o2)c(F)c1)Nc1ccc(Cl)c(C(F)(F)F)c1
- GI50 [1]: 2.92 µM
- TGI [1]: 18.3 µM
- GI50 [2]: 2.13 µM
- TGI [2]: 7.96 µM
- GI50 [3]: 1.85 µM
- TGI [3]: 4.9 µM
- GI50 [4]: 2.97 µM
- TGI [4]: 12.2 µM
- GI50 [5]: 3.72 µM
- TGI [5]: 17 µM
- GI50 [6]: 2.9 µM
- TGI [6]: 11 µM
- GI50 [7]: 2.35 µM
- TGI [7]: 7.64 µM
- GI50 [8]: 2.97 µM
- TGI [8]: 12.1 µM
- GI50 [9]: 2.01 µM
- TGI [9]: 4.42 µM
- GI50 [10]: 2.6 µM
- TGI [10]: 7.76 µM

SMILES: C=CC(=O)Nc1cccc(Oc2nc(Nc3ccc(N4CCN(C)CC4)cc3)nc3ccsc23)c1
- GI50 [1]: 3.51 µM and 3.35 µM
- TGI [1]: > 10 µM and 14.1 µM
- GI50 [2]: 6.16 µM and 4.88 µM
- TGI [2]: > 10 µM and 41.3 µM
- GI50 [3]: 2.23 µM
- TGI [3]: 5.73 µM
- GI50 [4]: 1.99 µM
- TGI [4]: > 10 µM
- GI50 [5]: 0.398 µM and 0.6 µM
- TGI [5]: 2.56 µM and 4.04 µM
- GI50 [6]: 2.07 µM and 1.92 µM
- TGI [6]: 4.61 µM and 4.07 µM
- GI50 [7]: 2.25 µM and 2.24 µM
- TGI [7]: 6.44 µM and 5.78 µM
- GI50 [8]: 3.59 µM and 3.63 µM
- TGI [8]: > 10 µM and 11.7 µM
- GI50 [9]: 1.64 µM and 1.75 µM
- TGI [9]: 3.05 µM and 3.16 µM
- GI50 [10]: 1.54 µM
- TGI [10]: 3.31 µM and 4.26 µM

SMILES: O=C(O)CN1CCN(CC(=O)O)CC(=O)[O][Hg][O]C(=O)C1
- GI50 [1]: 29.8 µM
- TGI [1]: > 100 µM
- GI50 [2]: > 43.9 µM
- TGI [2]: > 71.3 µM
- GI50 [3]: 14.8 µM
- TGI [3]: 38.6 µM
- GI50 [4]: 21.5 µM
- TGI [4]: 36.4 µM
- GI50 [5]: 16 µM
- TGI [5]: 29.5 µM
- GI50 [6]: 19.6 µM
- TGI [6]: 52.7 µM
- GI50 [7]: 19.6 µM
- TGI [7]: 35.3 µM
- GI50 [8]: 22.4 µM
- TGI [8]: 49.4 µM
- GI50 [9]: 20.5 µM
- TGI [9]: > 57 µM
- GI50 [10]: 18.1 µM
- TGI [10]: 32.5 µM

SMILES: CNCCCNCCCCNCCCN1C(=O)c2ccc3c4c(ccc(c24)C1=O)C(=O)N(CCCNCc1ccccc1OC)C3=O
- GI50 [1]: 3.79 µM
- TGI [1]: 17.2 µM
- GI50 [2]: 2.9 µM
- TGI [2]: 22 µM
- GI50 [3]: 4.42 µM
- TGI [3]: 43.9 µM
- GI50 [4]: 2.25 µM
- TGI [4]: 24.4 µM
- GI50 [5]: 4.08 µM
- TGI [5]: 43.5 µM
- GI50 [6]: 2.16 µM
- TGI [6]: 15.8 µM
- GI50 [7]: 4.63 µM
- TGI [7]: 70.2 µM
- GI50 [8]: 2.89 µM
- TGI [8]: 54.6 µM
- GI50 [9]: 0.813 µM
- TGI [9]: 3 µM
- GI50 [10]: 3.82 µM
- TGI [10]: 19.3 µM

SMILES: COc1cc(N2C(=O)[C@H](O)C2c2ccc(SC)cc2)cc(OC)c1OC (some centres undefined)
- GI50 [1]: < 0.01 µM
- TGI [1]: > 100 µM
- GI50 [2]: < 0.01 µM
- TGI [2]: > 100 µM
- GI50 [3]: < 0.01 µM
- TGI [3]: > 100 µM
- GI50 [4]: < 0.01 µM
- TGI [4]: > 100 µM
- GI50 [5]: 23.2 µM
- TGI [5]: > 100 µM
- GI50 [6]: < 0.01 µM
- TGI [6]: > 100 µM
- GI50 [7]: 0.0235 µM
- TGI [7]: > 100 µM
- GI50 [8]: < 0.01 µM
- TGI [8]: 22.4 µM
- GI50 [9]: < 0.01 µM
- TGI [9]: 0.0304 µM
- GI50 [10]: < 0.01 µM
- TGI [10]: > 100 µM

SMILES: O=C(O)c1ccc(C(=O)c2ccccc2)c(C(=O)O)c1
- TGI [1]: > 100 µM
- TGI [2]: > 100 µM
- TGI [3]: > 100 µM
- TGI [4]: > 100 µM
- TGI [5]: > 100 µM
- TGI [6]: > 100 µM
- TGI [7]: > 100 µM
- TGI [8]: > 100 µM
- TGI [9]: > 100 µM
- TGI [10]: > 100 µM
